Measurements from US10617679B2, “Deuterated compounds and medical uses thereof” (JINGLUWEIDAI INFORMATION CONSULTING SERVICE (BEIJING) CO. …, priority 2016, dated 2020).

Tests used:
[1] = tested on: rat chronic sciatic nerve compression neuralgia model; test: Analgesic effects of intragastric administration in a rat chronic sciatic nerve compression neuralgia model; format: in vivo, SD rats; details: pain threshold 1 hour after administration
Description: SD rats (male, weight 160-180 g) were anesthetized using sodium pentobarbital (40 mg/kg), of which the sciatic nerves were separated in the middle segment of the right hind limbs. In the anterior segment of the sciatic nerve to be bifurcated, the sciatic nerve was separated from the surrounding tissue using a sterile glass hook. Four rings were loosely ligated with sterile chrome gut (No. 4, 0.15 mm in diameter) by an interval of 1 to 2 mm. Topically sprinkled with penicillin powder. The muscle tissue and skin were sutured. The rats were placed in a cage with cork dust. In the sham surgery group, the sciatic nerve was only exposed, and the other treatments were the same as described above. The rats after surgery were placed in a metal cage. […] The weight of the filament was recorded and set to be the threshold (in g). Meanwhile, the number of foot-lifting response to the 10 stimulations of the fiber filaments of different weights was recorded, and the highest threshold was set at 26 g.
5-6 rats in each group were intragastrically administered and the pain thresholds were measured 1 hour after administration. Statistical analysis of the thresholds was performed using non-parametric Wilcoxon 2-Sample Test and Kruskal-Wallis Test, and the data was analyzed with SASS data processing software. Analgesic percent (%)=(pain threshold after drug treatment−pain threshold before drug treatment)/(maximal analgesia threshold−pain threshold before drug treatment)[…].

blood pressure in rats = test: Effects on blood pressure in rats; format: in vivo, SD rats
Description: (§1) SD rats (male, weight 160-180 g) were fasted for 12 hours before administration but had free access to drinking water. The rats were randomly divided into groups. They were anesthetized with an intraperitoneal injection of 50-60 mg/kg dose of sodium pentobarbital. Each rat was fixed on the back on the surgical table. The skin was cut from the center of the neck, and an incision of about 2.5 cm was made. The subcutaneous tissue and the median muscle were separated; the trachea was fully exposed; and the endotracheal intubation was performed. The subcutaneous tissue was separated from front to back on the right side; the right common carotid artery, the vagus nerve and the sympathetic nerve were exposed; and the carotid artery cannulation was performed. Finally, the endotracheal tube and the carotid artery cannula were respectively connected to a respiration transducer and a blood pressure transducer, and then connected to a multifunctional physiological recorder. At 30 minutes after surgery, the rats were intragastrically administrated. Heart rate and blood pressure were measured at different time points after administration.

Wistar rats = test: Evaluation of subacute toxicity (14 days, intragastric); format: in vivo; details: 40 mg/kg intragastric once a day for 14 days; for ALT / AST: rat
Description: Male Wistar rats were randomly divided into groups with 10 rats in each group and weighed. A certain concentration of a test sample was ground and suspended in a 0.5% sodium carboxymethyl cellulose solution. The sodium carboxymethyl cellulose suspension containing 40 mg/kg of the test compound and a blank sodium carboxymethyl cellulose suspension as a control were intragastrically administered, once a day for 14 consecutive days. After the last administration, the rats were fasted but had free access to drinking water for 12 hours, and then anesthetized. Their blood samples were obtained from the abdominal aortas. According to SOPB093 “Standard Operating Procedures for Serum Preparation” in National Beijing Center for Drug Safety Evaluation and Research, serum was prepared for the determination of blood biochemical and immunological indicators; according to SOPB032 “Preparation of vacuum tubes with EDTA anticoagulation”, EDTA anticoagulation was prepared for the general blood routine tests.

[2] = tested on: oxycodone-induced place preference in rats; test: Inhibition of oxycodone-induced place preference in rats; format: in vivo, SD rats; details: day 10, within 15 minutes
Description: SD rats (male, weight 160-180 g) were placed in conditioned place preference (CPP) training boxes, where the partition door between the boxes was open. Time the rats spent in each of the boxes was recorded within 15 min in order to determine the natural tendency of the rats. The rats were then randomly divided into groups with 10 rats in each group according to the amount of time spent in the white box. The white box was a drug box, and the black box was a box with the absence of the drug. After intragastric administration with a test compound for 40 minutes, the rats were injected subcutaneously with oxycodone (2.5 mg/kg, s.c.) or saline, and immediately placed in the white box or the black box to be trained for 45 minutes, once a day for 9 consecutive days. On the 10th day, the rats were placed in the training boxes with the partition door open. The time the rats spent in the white box was recorded within 15 minutes to evaluate effects on place preference in the rats.

heart rate in rats = test: Effects on heart rate in rats; format: in vivo, SD rats
Description: as §1

rat formalin model = test: Analgesic effects of intragastric administration in a rat formalin model; format: in vivo, SD rats; details: mean ± SD; for Reaction time for phase I: licking time 0-5 min after formalin; for Reaction time for Phase II: licking time 15-30 min after formalin
Description: SD rats (male, weight 160-180 g) were randomly divided into groups with 6 rats in each group. After the rats were intragastrically administered different doses separately, they were placed in PVC observation boxes for habituation. After 30 min, the rats were injected subcutaneously with 20 μL of 2.7% formalin solution into the plantar surface of the left hind paws, and quickly put back in the PVC observation boxes for observation. The length of time the rats spent licking the injected-formalin paws at the early response (0-5 min, phase I) and the late response (15-30 min, Phase II) was recorded, and the analgesic activities of the test compounds were evaluated according to the length of time the rats spent licking during the period of observation. The experimental data were expressed as mean±standard deviation. The shorter the licking time, the better the analgesic effect of the compound.

[3] = 20 mg/kg intragastric, time point 0
[4] = 20 mg/kg intragastric, time point 30
[5] = 20 mg/kg intragastric, time point 60
[6] = 20 mg/kg intragastric, time point 90
[7] = 20 mg/kg intragastric, time point 120
[8] = 20 mg/kg intragastric, time point 180
[9] = 40 mg/kg intragastric, time point 0
[10] = 40 mg/kg intragastric, time point 30
[11] = 40 mg/kg intragastric, time point 60
[12] = 40 mg/kg intragastric, time point 90
[13] = 40 mg/kg intragastric, time point 120
[14] = 40 mg/kg intragastric, time point 180
[15] = test dose 10 mg/kg intragastric + oxycodone 2.5 mg/kg s.c.
[16] = test dose 20 mg/kg intragastric + oxycodone 2.5 mg/kg s.c.

Structure (SMILES) | Analgesic percent ([1]; 20 mg/kg intragastric) | Analgesic percent ([1]; 40 mg/kg intragastric) | Blood pressure (blood pressure in rats; [3]) | Blood pressure (blood pressure in rats; [4]) | Blood pressure (blood pressure in rats; [5]) | Blood pressure (blood pressure in rats; [6]) | Blood pressure (blood pressure in rats; [7]) | Blood pressure (blood pressure in rats; [8]) | Blood pressure (blood pressure in rats; [9]) | Blood pressure (blood pressure in rats; [11]) | Blood pressure (blood pressure in rats; [12]) | Blood pressure (blood pressure in rats; [13]) | Blood pressure (blood pressure in rats; [14]) | ALT (Wistar rats) | AST (Wistar rats) | plasma ALT and AST versus control group (Wistar rats; result in words) | Time spent in the drug box (Mean ± S) [2, 15] | Time spent in the drug box (Mean ± S) [2, 16] | Heart rate (heart rate in rats; [3]) | Heart rate (heart rate in rats; [4]) | also measured
[2H]C([2H])([2H])Oc1ccc2c(c1OC)CN1CCc3cc(OC)c(OC)cc3[C@@H]1C2 [Formula I2, (13a S)-2,3,9-trimethoxy-10-[(trideutero)-methoxy]-6,8,13,13a-tetrahydro-5H-isoquinolino[2,1-b]isoquinoline] | 59.00% | 68.86% | 113.1 ± 15.7 mmHg | 113.4 ± 17.3 mmHg | 101.5 ± 27.46 mmHg | 102.25 ± 21.6 mmHg | 113.1 ± 14.2 mmHg | 102.3 ± 7.6 mmHg | 114.6 ± 19.4 mmHg | 82.5 ± 19.8 mmHg | 92.8 ± 18.6 mmHg | 110.5 ± 15.5 mmHg | 100.0 ± 17.8 mmHg | 172.8 ± 37.5 U/L | 195.0 ± 32.1 U/L | significant increase | 193.94 ± 44.3 s | 140.59 ± 28.52 s | 400.8 ± 32.1 BTM | 378.3 ± 30.3 BTM | Blood pressure (blood pressure in rats; [10]): 95.5 ± 15.9 mmHg; histopathological examination of liver (Wistar rats; result in words): vacuolar degeneration of hepatocytes; Heart rate (heart rate in rats; [5]): 384.6 ± 48.2 BTM; Heart rate (heart rate in rats; [6]): 388.0 ± 21.4 BTM; Heart rate (heart rate in rats; [7]): 402.5 ± 59.3 BTM; Heart rate (heart rate in rats; [8]): 407.0 ± 36.5 BTM; Heart rate (heart rate in rats; [9]): 409.2 ± 41.7 BTM; Heart rate (heart rate in rats; [10]): 390.7 ± 41.7 BTM; Heart rate (heart rate in rats; [11]): 319.7 ± 57.2 BTM; Heart rate (heart rate in rats; [12]): 353.8 ± 66.7 BTM; Heart rate (heart rate in rats; [13]): 378.0 ± 47.6 BTM; Heart rate (heart rate in rats; [14]): 407.0 ± 42.6 BTM; Reaction time for phase I (rat formalin model; 20 mg/kg intragastric): 82.1 ± 16.3 s; Reaction time for Phase II (rat formalin model; 20 mg/kg intragastric): 64.5 ± 19.5 s; Reaction time for phase I (rat formalin model; 40 mg/kg intragastric): 41.0 ± 10.7 s; Reaction time for Phase II (rat formalin model; 40 mg/kg intragastric): 46.5 ± 16.0 s
[2H]C([2H])([2H])Oc1cc2c(cc1OC([2H])([2H])[2H])[C@@H]1Cc3ccc(OC([2H])([2H])[2H])c(OC([2H])([2H])[2H])c3CN1CC2 [Formula I7, (13a S)-2,3,9,10-tetra-[(trideutero)-methoxy]-6,8,13,13a-tetrahydro-5H-isoquinolino[2,1-b]isoquinoline] | 70.67% | 73.53% | 112.6 ± 27.5 mmHg | 103.4 ± 11.7 mmHg | 104.2 ± 9.8 mmHg | 102.6 ± 7.2 mmHg | 114.1 ± 11.3 mmHg | 135.3 ± 15.6 mmHg | 113.0 ± 11.4 mmHg | 83.5 ± 7.2 mmHg | 82.6 ± 6.5 mmHg | 95.3 ± 9.5 mmHg | 101.8 ± 8.1 mmHg | 84.5 ± 20.6 U/L | 143.8 ± 21.0 U/L | no significant difference | 154.32 ± 21.38 s | 135.40 ± 25.09 s | 401.5 ± 32.1 BTM | 380.8 ± 33.4 BTM | Heart rate (heart rate in rats; [5]): 389.5 ± 26.6 BTM; Heart rate (heart rate in rats; [6]): 405.3 ± 31.0 BTM; Heart rate (heart rate in rats; [7]): 391.0 ± 24.9 BTM; Heart rate (heart rate in rats; [8]): 398.5 ± 28.8 BTM; Heart rate (heart rate in rats; [9]): 407.9 ± 29.5 BTM; Heart rate (heart rate in rats; [10]): 366.8 ± 27.7 BTM; Heart rate (heart rate in rats; [11]): 332.6 ± 24.9 BTM; Heart rate (heart rate in rats; [12]): 343.2 ± 21.0 BTM; Heart rate (heart rate in rats; [13]): 356.7 ± 25.8 BTM; Heart rate (heart rate in rats; [14]): 362.0 ± 32.1 BTM; Reaction time for phase I (rat formalin model; 20 mg/kg intragastric): 45.2 ± 9.9 s; Reaction time for Phase II (rat formalin model; 20 mg/kg intragastric): 58.2 ± 12.5 s; Reaction time for phase I (rat formalin model; 40 mg/kg intragastric): 35.7 ± 9.0 s; Reaction time for Phase II (rat formalin model; 40 mg/kg intragastric): 35.9 ± 13.6 s
